Each structure is given as a SMILES string.

One assay deals with reserpine-induced hypothermia. In words: Antidepressant action: inhibition of reserpine-induced hypothermia. It is filed as in vivo, male mice (Swiss). The settings on record: Mus musculus, po, read-out: Antidepressant action (mouse) ED50. On the procedure:
Antidepressants produce a dose-dependent inhibition of this hypothermia. The test substances were administered orally 60 minutes before reserpine.
The term ED50 denotes the dose at which the effect has come halfway, by size or by number of responders. Take `CN(C)CCCN1c2ccccc2CCc2ccccc21` [Imipramine, reference compound]: the ED50 came out at 6.8 mg/kg.

Still in this assay, the particulars now being: po; mouse; administered orally 60 minutes before reserpine (2.15 mg/kg s.c.); 50% inhibition of hypothermia; read-out: Antidepressant action (mouse) ED50.
Turning to `CC(=CC#N)CN1C(=O)c2ccccc2S1(=O)=O` [Example 1, 3-(2,3-dihydro-1,1-dioxido-3-oxo-1,2-benzisothiazol-2-yl)-1-cyano-2-methylprop-1-ene], the 50% effective dose (ED50) worked out at 3.5 mg/kg.
Consider `CC(=CC#N)CN1C(=O)c2c(Cl)cccc2S1(=O)=O` [Example 4, 3-(2,3-Dihydro-4-chloro-1,1-dioxido-3-oxo-1,2-benzisothiazol-2-yl)-1-cyano-2-methylprop-1-ene], for which the ED50 was determined as 3.1 mg/kg.
Consider `CC(=CC#N)CN1C(=O)c2cc(Cl)ccc2S1(=O)=O` [Example 6, 3-(2,3-Dihydro-5-chloro-1,1-dioxido-3-oxo-1,2-benzisothiazol-2-yl)-1-cyano-2-methylprop-1-ene], for which the ED50 came to 1.1 mg/kg.
Take `CC(=CC#N)CN1C(=O)c2ccccc2C1=O` [Example 11, 3-(Phthalimid-2-yl)-1-cyano-2-methylprop-1-ene]: the ED50 amounted to 18.9 mg/kg.
Consider `CC(=CC#N)CN1Cc2ccccc2C1=O` [Example 12, 3-(Phthalimidin-2-yl)-1-cyano-2-methylprop-1-ene], for which the ED50 was 11.4 mg/kg.
The same measure, in the same setting: the value for `CC(=CC#N)CCN1C(=O)c2ccccc2C1=O` [Example 18, 4-(Phthalimid-2-yl)-1-cyano-2-methylbut-1-ene] was 4.5 mg/kg; that for `O=C1NCCCC1N1C(=O)c2ccccc2S1(=O)=O` (stereo not drawn) [Supidimide, 3-(2,3-dihydro-1,1-dioxido-3-oxo-1,2-benzisothiazol-2-yl)-2-oxopiperidine, reference compound] was 2150 mg/kg.

The same assay, now with this note: up to the maximum test dose of 2,150 mg/kg, administered orally.
As to `O=C1NCCCC1N1C(=O)c2ccccc2S1(=O)=O` (stereo not drawn) [Supidimide, 3-(2,3-dihydro-1,1-dioxido-3-oxo-1,2-benzisothiazol-2-yl)-2-oxopiperidine, reference compound], the “antidepressant action (in words)” value is “completely absent”.

The subject of a further assay is orientation hypermotility. Nature of the assay: Sedative action: reduction of orientation hypermotility induced by a new environment. The format is in vivo, female NMRI mice. Conditions: Mus musculus, po, 0.5 h, read-out: Sedative action (mouse) ED50. On the procedure:
The test substances were administered orally to groups comprising three female NMRI mice each. The orientation hypermotility induced by a new environment is determined photoelectrically, 30 minutes after administration of the substance, over a period of 30 minutes.
The ED50, ie. the dose which produces 50% reduction in orientation hypermotility compared to untreated control animals, was determined.
In the case of `CN(C)CCCN1c2ccccc2CCc2ccccc21` [Imipramine, reference compound], the ED50 is roughly 100 mg/kg.

Still in this assay, the particulars now being: known, and also found in the test for sedative action.
On to `O=C1NCCCC1N1C(=O)c2ccccc2S1(=O)=O` (stereo not drawn) [Supidimide, 3-(2,3-dihydro-1,1-dioxido-3-oxo-1,2-benzisothiazol-2-yl)-2-oxopiperidine, reference compound], for which the “weak suppressant effect on the central nervous system (in words)” value is given as “weak suppressant effect on the central nervous system”.

The assay is the same for the next values; noted with them: po, 0.5 h; mouse; administered orally, 30 min after administration, over 30 min; 50% reduction in orientation hypermotility; read-out: Sedative action (mouse) ED50.
`CC(=CC#N)CN1C(=O)c2ccccc2S1(=O)=O` [Example 1, 3-(2,3-dihydro-1,1-dioxido-3-oxo-1,2-benzisothiazol-2-yl)-1-cyano-2-methylprop-1-ene]: the ED50 came out at 50 mg/kg.
On to `CC(=CC#N)CN1C(=O)c2c(Cl)cccc2S1(=O)=O` [Example 4, 3-(2,3-Dihydro-4-chloro-1,1-dioxido-3-oxo-1,2-benzisothiazol-2-yl)-1-cyano-2-methylprop-1-ene], for which the ED50 was 52 mg/kg.
The same measure, in the same setting: next, `CC(=CC#N)CN1C(=O)c2cc(Cl)ccc2S1(=O)=O` [Example 6, 3-(2,3-Dihydro-5-chloro-1,1-dioxido-3-oxo-1,2-benzisothiazol-2-yl)-1-cyano-2-methylprop-1-ene]: 100 mg/kg; `CC(=CC#N)CN1C(=O)c2ccccc2C1=O` [Example 11, 3-(Phthalimid-2-yl)-1-cyano-2-methylprop-1-ene]: 68 mg/kg; `CC(=CC#N)CN1Cc2ccccc2C1=O` [Example 12, 3-(Phthalimidin-2-yl)-1-cyano-2-methylprop-1-ene]: 49 mg/kg.
As for `CC(=CC#N)CCN1C(=O)c2ccccc2C1=O` [Example 18, 4-(Phthalimid-2-yl)-1-cyano-2-methylbut-1-ene], the ED50 was determined as 29 mg/kg.
As for `O=C1NCCCC1N1C(=O)c2ccccc2S1(=O)=O` (stereo not drawn) [Supidimide, 3-(2,3-dihydro-1,1-dioxido-3-oxo-1,2-benzisothiazol-2-yl)-2-oxopiperidine, reference compound], the ED50 came to 277 mg/kg.
